# Key:
# Format in all cases: in vivo
# [1] = tested on: barnyardgrass (Echinochloa crus-galli); test: Test A pre-/postemergence plant response
# Method in brief: (§1)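 Plants grown from seed in a loam soil and sand mix received test compounds both as a preemergence soil spray and, at the same time, as a postemergence spray at the one- to two-leaf stage. Injury was judged visually against untreated controls roughly ten days later, 0 meaning no effect and 100 complete control.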
# [2] = tested on: corn (Zea mays); test: Test A pre-/postemergence plant response
# Method in brief: as §1
# [3] = tested on: giant foxtail (Setaria faberii); test: Test A pre-/postemergence plant response
# Method in brief: as §1
# [4] = tested on: large crabgrass (Digitaria sanguinalis); test: Test A pre-/postemergence plant response
# Method in brief: as §1
# [5] = tested on: morningglory (Ipomoea spp.); test: Test A pre-/postemergence plant response
# Method in brief: as §1
# [6] = tested on: pigweed (Amaranthus retroflexus); test: Test A pre-/postemergence plant response
# Method in brief: as §1
# [7] = tested on: velvetleaf (Abutilon theophrasti); test: Test A pre-/postemergence plant response
# Method in brief: as §1
# [8] = tested on: wheat (Triticum aestivum); test: Test A pre-/postemergence plant response
# Method in brief: as §1
# [9] = tested on: canarygrass (Phalaris minor); test: Test B postemergence plant response
# Method in brief: (§2)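 Plants at the 1- to 4-leaf stage (2 to 18 cm tall), grown in pots of peat moss/vermiculite medium with wetting agent and starter nutrients, received postemergence applications of test chemicals. After 13 to 15 days in a greenhouse, injury was rated visually against untreated controls on a 0 (no effect) to 100 (complete control) scale.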
# [10] = tested on: chickweed (Stellaria media); test: Test B postemergence plant response
# Method in brief: as §2
# [11] = tested on: windgrass (Apera spica-venti); test: Test B postemergence plant response
# Method in brief: as §2
# [12] = tested on: ducksalad (Heteranthera limosa); test: Test B flooded paddy test; conditions: for Plant response rating, Flood, Ducksalad: 250 g ai/ha, flooded paddy test, visual rating on 0 to 100 scale (0 no effect, 100 complete control) after 13 to 15 days; for Plant response rating, Ducksalad: Flood (flooded paddy test), 13 to 15 days; for Ducksalad plant response rating: Flood, 31 g ai/ha, scale 0 to 100 (0 no effect, 100 complete control)
# Method in brief: (§3)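 Flooded-pot test: water raised to 3 cm above soil when treating, compound put in the water, level unchanged thereafter. Plants were at 2 leaves. Readout after 13 to 15 days, visual, relative to controls; 0 signifies no effect and 100 complete control.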
# [13] = tested on: rice (Oryza sativa); test: Test B flooded paddy test; conditions: for Plant response rating, Flood, Rice: 250 g ai/ha, flooded paddy test, visual rating on 0 to 100 scale (0 no effect, 100 complete control) after 13 to 15 days; for Plant response rating, Rice: Flood (flooded paddy test), 13 to 15 days; for Rice plant response rating: Flood, 31 g ai/ha, scale 0 to 100 (0 no effect, 100 complete control)
# Method in brief: as §3
# [14] = Postemergence, 125 g ai/ha, 0 to 100 scale where 0 is no effect and 100 is complete control
# [15] = Postemergence, 500 g ai/ha, 0 to 100 scale, 0 = no effect, 100 = complete control, approx. ten days
# [16] = Preemergence, 125 g ai/ha, 0 to 100 scale, 0 = no effect, 100 = complete control
# [17] = Preemergence, 500 g ai/ha, visual injury, 0 to 100 scale (0 no effect, 100 complete control), approx. ten days
# [18] = 31 g ai/ha, postemergence, scale 0 to 100, 0 is no effect, 100 is complete control
# [19] = 62 g ai/ha, postemergence, 0 is no effect, 100 is complete control, 13 to 15 days
# [20] = Postemergence, 125 g ai/ha, visual rating after 13 to 15 days, scale 0 (no effect) to 100 (complete control)
# [21] = Postemergence, 250 g ai/ha, scale 0 to 100 (0 no effect, 100 complete control)
# [22] = 62 g ai/ha, scale of 0 to 100 where 0 is no effect and 100 is complete control
# [23] = 125 g ai/ha, scale 0 to 100, 0 is no effect, 100 is complete control
# [24] = Postemergence, 500 g ai/ha, visual injury, 0 to 100 scale (0 no effect, 100 complete control), approx. ten days
# [25] = Preemergence, 125 g ai/ha, 0 to 100 scale where 0 is no effect and 100 is complete control, approximately ten days
# [26] = Preemergence, 500 g ai/ha, 0 to 100 scale, 0 = no effect, 100 = complete control
# [27] = Postemergence, 125 g ai/ha, visual injury, 0 to 100 scale (0 no effect, 100 complete control), approx. ten days
# [28] = Postemergence, 31 g ai/ha, 0 to 100 scale (0 no effect, 100 complete control)
# [29] = Postemergence, 62 g ai/ha, scale 0 to 100 (0 no effect, 100 complete control)
# [30] = Postemergence, 125 g ai/ha, scale 0 (no effect) to 100 (complete control), 13 to 15 days
# [31] = Postemergence, 250 g ai/ha, scale 0 to 100 (0 no effect, 100 complete control), 13 to 15 days
smiles,measurement,setting,value
CCCCn1c(-c2ccccc2)ncc(C(=O)C2=C(O)CCCC2=O)c1=O [Compound 86],"Plant response rating, Barnyardgrass",[1]; [14],90
same,"Plant response rating, Barnyardgrass",[1]; [15],90
same,"Plant response rating, Barnyardgrass",[1]; [16],20
same,"Plant response rating, Barnyardgrass",[1]; [17],100
same,"Plant response rating, Corn",[2]; [14],0
same,"Plant response rating, Corn",[2]; [15],50
same,"Plant response rating, Foxtail, Giant",[3]; [14],80
same,"Plant response rating, Foxtail, Giant",[3]; [15],90
same,"Plant response rating, Foxtail, Giant",[3]; [17],100
same,"Plant response rating, Crabgrass, Large",[4]; [14],90
same,"Plant response rating, Crabgrass, Large",[4]; [15],90
same,"Plant response rating, Morningglory",[5]; [14],90
same,"Plant response rating, Morningglory",[5]; [15],90
same,"Plant response rating, Morningglory",[5]; [16],0
same,"Plant response rating, Morningglory",[5]; [17],60
same,"Plant response rating, Pigweed",[6]; [14],100
same,"Plant response rating, Pigweed",[6]; [15],100
same,"Plant response rating, Velvetleaf",[7]; [14],100
same,"Plant response rating, Velvetleaf",[7]; [15],100
same,"Plant response rating, Velvetleaf",[7]; [17],100
same,"Plant response rating, Wheat",[8]; [14],0
same,"Plant response rating, Wheat",[8]; [15],50
same,"Plant response rating, Canarygrass",[9]; [18],20
same,Canarygrass plant response rating (0 to 100 scale),[9]; [19],20
same,"Plant response rating, Canarygrass",[9]; [20],80
same,"Plant response rating, Canarygrass",[9]; [21],85
same,"Plant response rating, Chickweed",[10]; [18],80
same,Chickweed plant response rating (0 to 100 scale),[10]; [19],95
same,"Plant response rating, Chickweed",[10]; [20],95
same,"Plant response rating, Chickweed",[10]; [21],98
same,"Plant response rating, Windgrass",[11]; [18],30
same,Windgrass plant response rating (0 to 100 scale),[11]; [19],60
same,"Plant response rating, Windgrass",[11]; [21],95
same,"Plant response rating, Flood, Ducksalad",[12],65
same,"Plant response rating, Ducksalad",[12]; [22],55
same,"Plant response rating, Ducksalad",[12]; [23],55
same,Ducksalad plant response rating,[12],0
same,"Plant response rating, Flood, Rice",[13],40
same,"Plant response rating, Rice",[13]; [22],0
same,"Plant response rating, Rice",[13]; [23],20
same,Rice plant response rating,[13],0
CCc1ccccc1-n1c(-c2ccccc2)ncc(C(=O)C2=C(O)CCCC2=O)c1=O [Compound 255],"Plant response rating, Barnyardgrass",[1]; [14],90
same,Barnyardgrass plant response rating,[1]; [24],100
same,"Plant response rating, Barnyardgrass",[1]; [25],10
same,"Plant response rating, Barnyardgrass",[1]; [26],100
same,"Plant response rating, Corn",[2]; [14],30
same,Corn plant response rating,[2]; [24],70
same,"Plant response rating, Corn",[2]; [25],0
same,"Plant response rating, Corn",[2]; [26],0
same,"Plant response rating, Foxtail, Giant",[3]; [27],90
same,"Foxtail, Giant plant response rating",[3]; [24],90
same,"Plant response rating, Foxtail, Giant",[3]; [25],0
same,"Plant response rating, Foxtail, Giant",[3]; [26],50
same,"Plant response rating, Crabgrass, Large",[4]; [14],90
same,"Crabgrass, Large plant response rating",[4]; [24],100
same,"Plant response rating, Crabgrass, Large",[4]; [25],20
same,"Plant response rating, Crabgrass, Large",[4]; [26],90
same,"Plant response rating, Morningglory",[5]; [27],100
same,Morningglory plant response rating,[5]; [24],100
same,"Plant response rating, Morningglory",[5]; [25],40
same,"Plant response rating, Morningglory",[5]; [26],60
same,"Plant response rating, Pigweed",[6]; [27],90
same,Pigweed plant response rating,[6]; [24],100
same,"Plant response rating, Pigweed",[6]; [25],70
same,"Plant response rating, Pigweed",[6]; [26],90
same,"Plant response rating, Velvetleaf",[7]; [27],100
same,Velvetleaf plant response rating,[7]; [24],100
same,"Plant response rating, Velvetleaf",[7]; [25],60
same,"Plant response rating, Velvetleaf",[7]; [26],100
same,"Plant response rating, Wheat",[8]; [27],10
same,Wheat plant response rating,[8]; [24],50
same,"Plant response rating, Wheat",[8]; [25],0
same,"Plant response rating, Wheat",[8]; [26],0
same,"Plant response rating, Canarygrass",[9]; [28],50
same,"Plant response rating, Canarygrass",[9]; [29],50
same,"Plant response rating, Canarygrass",[9]; [30],50
same,"Plant response rating, Canarygrass",[9]; [31],60
same,"Plant response rating, Chickweed",[10]; [28],95
same,"Plant response rating, Chickweed",[10]; [29],98
same,"Plant response rating, Chickweed",[10]; [30],100
same,"Plant response rating, Chickweed",[10]; [31],100
same,"Plant response rating, Windgrass",[11]; [28],50
same,"Plant response rating, Windgrass",[11]; [29],80
same,"Plant response rating, Windgrass",[11]; [30],80
same,"Plant response rating, Windgrass",[11]; [31],95
same,"Plant response rating, Flood, Ducksalad",[12],80
same,"Plant response rating, Ducksalad",[12]; [22],50
same,"Plant response rating, Ducksalad",[12]; [23],60
same,Ducksalad plant response rating,[12],0
same,"Plant response rating, Flood, Rice",[13],0
same,"Plant response rating, Rice",[13]; [22],0
same,"Plant response rating, Rice",[13]; [23],0
same,Rice plant response rating,[13],0
